Source: ChEMBL document CHEMBL4725362, “Discovery of Novel Inhibitors of a Critical Brain Enzyme Using a Homology Model and a Deep Convolutional Neural Network” (J Med Chem, 2020)

Assay: Inhibition of N-terminal MBP tagged and C-terminal 6x-His-tagged ANAT (unknown origin) expressed in Escherichia coli BL21(DE3) assessed as reduction in coenzyme A production using DTNB incubated up to 30 mins in presence of 0.1%Triton X-100
Set-up: species or system Homo sapiens

Compound	IC50
CCOC(=O)c1sc(NC(=O)COC(=O)Cn2c(=O)cnc3ccccc32)cc1C	6.1 µM
Nc1cc(N)nc(SCc2ncc(-c3ccc(F)cc3)o2)n1	4.82 µM
Cc1c(C(=O)O)sc2[nH]c(=O)cc(CSc3nnc(C4CC4)[nH]3)c12	1.25 µM
Cc1nnc(SCc2nnc(-c3c(-c4ccccc4)noc3C)o2)s1	2.71 µM
